Patent US20220227722A1, “SPHINGOSINE 1 PHOSPHATE RECEPTOR MODULATOR” (RECEPTOS LLC, priority 2019, published 2022)
Like-named read-outs stand apart in the source and are kept apart here. Each block holds one compound with its values, some of them ahead of it.

Key:
S1P3R [1] = target: T1, S1P3R (Homo sapiens, UniProt Q99500); assay: [35S]GTPγS binding to membranes, S1P3R; assay type: biochemical
T1 construct: expressed in transfected cells; membranes
Description: (§1) S1P1R is a GPCR that couples exclusively to the inhibitory G protein (Gαi), decreasing adenylate cyclase activity and lowering cyclic adenosine monophosphate (cAMP levels) in the cell. The potency of Compound 1 was tested against the S1P1 receptor (S1P1R) and related family members. The potency and S1P receptor selectivity were measured using two independent in vitro assays, [^35S]guanosine-5′-O-(3-thio)triphosphate ([^35S]GTPγS) and β-lactamase gene expression and activity. The GTPγS binding to membranes prepared from stable mammalian cells lines expressing recombinant human S1P receptors 1-5 (S1P1R-S1P5R) was used to pharmacologically characterize ligand interaction with the S1P receptor family members. […] Membrane-bead complexes were then pelleted by centrifugation before the bound radioactivity was quantified with a MicroBeta2® microplate scintillation counter. The radioactive counts relative to DMSO vehicle were calculated and the half maximal effective concentration (EC50) was determined using non-linear regression.

S1P2R = target: T2, S1P2R (Homo sapiens, UniProt O95136); assay: [35S]GTPγS binding to membranes, S1P2R; assay type: biochemical
T2 construct: expressed in transfected cells; membranes
T2 sequence (O95136 whole entry): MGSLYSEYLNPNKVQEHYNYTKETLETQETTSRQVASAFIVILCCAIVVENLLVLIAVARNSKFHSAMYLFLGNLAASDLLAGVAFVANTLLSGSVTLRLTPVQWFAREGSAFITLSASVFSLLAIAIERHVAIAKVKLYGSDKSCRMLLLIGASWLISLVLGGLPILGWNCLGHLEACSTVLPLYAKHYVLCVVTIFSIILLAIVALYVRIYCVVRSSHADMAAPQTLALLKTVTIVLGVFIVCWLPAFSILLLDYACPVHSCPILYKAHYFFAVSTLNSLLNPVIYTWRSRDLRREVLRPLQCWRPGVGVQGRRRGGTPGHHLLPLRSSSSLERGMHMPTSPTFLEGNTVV
Description: as §1

S1P4R [2] = target: T3, S1P4R (Homo sapiens, UniProt O95977); assay: [35S]GTPγS binding to membranes, S1P4R; assay type: biochemical
T3 construct: expressed in transfected cells; membranes
T3 sequence (O95977 1-384): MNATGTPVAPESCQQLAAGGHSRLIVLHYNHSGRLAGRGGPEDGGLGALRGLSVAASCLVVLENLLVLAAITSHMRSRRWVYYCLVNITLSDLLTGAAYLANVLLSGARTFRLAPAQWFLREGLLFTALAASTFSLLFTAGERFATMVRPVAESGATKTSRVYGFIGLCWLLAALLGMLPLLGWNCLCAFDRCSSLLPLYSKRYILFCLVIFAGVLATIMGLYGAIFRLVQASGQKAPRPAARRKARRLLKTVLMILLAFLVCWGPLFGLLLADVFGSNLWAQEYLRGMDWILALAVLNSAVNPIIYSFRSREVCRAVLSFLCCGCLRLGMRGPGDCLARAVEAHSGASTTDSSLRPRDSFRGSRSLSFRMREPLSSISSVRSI
Description: as §1

S1P5R [3] = target: T4, S1P5R (Homo sapiens, UniProt Q9H228); assay: [35S]GTPγS binding to membranes, S1P5R; assay type: biochemical
T4 construct: expressed in transfected cells; membranes
T4 sequence (Q9H228 whole entry): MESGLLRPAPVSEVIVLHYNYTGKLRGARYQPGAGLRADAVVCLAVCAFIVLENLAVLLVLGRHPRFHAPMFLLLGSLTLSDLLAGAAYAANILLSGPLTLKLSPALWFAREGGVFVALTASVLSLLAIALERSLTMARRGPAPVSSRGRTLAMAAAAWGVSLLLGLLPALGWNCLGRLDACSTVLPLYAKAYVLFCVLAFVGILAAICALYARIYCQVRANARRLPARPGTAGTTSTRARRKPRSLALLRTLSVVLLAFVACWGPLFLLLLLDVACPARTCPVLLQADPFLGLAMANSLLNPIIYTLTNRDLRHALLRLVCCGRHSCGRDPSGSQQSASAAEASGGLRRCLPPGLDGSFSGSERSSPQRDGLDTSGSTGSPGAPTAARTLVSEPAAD
Description: as §1

[4] = Clinical PK, Phase 1 study of ozanimod HCl in relapsing remitting multiple sclerosis subjects; assay type: in vivo, human; details: for Tmax: read-out: Median Tmax; for % of total agonist exposure at steady state: total agonist = sum of ozanimod and active metabolites, ozanimod HCl PO QD
Excerpt: Serial blood PK samples were collected on Days 1 and the last day of dosing.

S1P5R [5] = target: T4, S1P5R; assay: β-lactamase gene expression and activity whole-cell assay, S1P5R; assay type: cell-based
Description: (§2) Up-regulation of β-lactamase gene expression and activity were used as a whole-cell functional readout of S1P receptor activation. […] The respective β-lactamase activity was then determined using a fluorescence resonance energy transfer (FRET)-based β-lactamase fluorescent substrate (LiveBLAzer™-FRET B/G Loading Kit CCF4-AM) according to manufacturer's instructions, and incubated with cells for 2 hours at RT. Plates were read using a SpectraMax M5 Multi-Mode microplate reader and the relative response to DMSO vehicle calculated for the EC50 determination using non-linear regression.

S1P1R [6] = target: T5, S1P1R (Homo sapiens, UniProt P21453); assay: [35S]GTPγS binding to membranes, S1P1R; assay type: biochemical
T5 construct: expressed in transfected cells; membranes
T5 sequence (P21453 whole entry): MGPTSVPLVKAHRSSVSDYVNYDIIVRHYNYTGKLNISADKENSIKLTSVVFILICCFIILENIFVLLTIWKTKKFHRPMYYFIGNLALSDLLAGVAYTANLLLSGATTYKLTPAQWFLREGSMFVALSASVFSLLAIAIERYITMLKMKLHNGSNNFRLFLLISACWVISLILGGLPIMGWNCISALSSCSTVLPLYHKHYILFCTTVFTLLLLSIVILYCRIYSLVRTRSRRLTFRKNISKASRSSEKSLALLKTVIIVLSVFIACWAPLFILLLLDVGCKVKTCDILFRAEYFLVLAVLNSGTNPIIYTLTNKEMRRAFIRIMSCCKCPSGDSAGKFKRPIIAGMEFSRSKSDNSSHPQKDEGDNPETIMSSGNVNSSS
Description: as §1

S1P1R [7] = target: T5, S1P1R; assay: β-lactamase gene expression and activity whole-cell assay, S1P1R; assay type: cell-based; details: stable cells expressing recombinant human S1P1R
Description: as §2

S1P3R [8] = target: T1, S1P3R; assay: β-lactamase gene expression and activity whole-cell assay, S1P3R; assay type: cell-based; details: stable cells expressing recombinant human S1P3R
Description: as §2

S1P4R [9] = target: T3, S1P4R; assay: β-lactamase gene expression and activity whole-cell assay, S1P4R; assay type: cell-based; details: stable cells expressing recombinant human S1P4R
Description: as §2

circulating lymphocytes = assay: Assessment of circulating lymphocyte counts after single oral dose; assay type: in vivo, Sprague Dawley rats; details: rat, 2 mg/kg oral single dose
Description: Whole blood samples were collected from acclimated, conscious male Sprague Dawley rats in the fed state using percutaneous jugular vein puncture at pre-dose and 3, 6 and 24 hours after single oral dose administration of vehicle or test compound. Blood samples were collected into K2EDTA tubes, thoroughly mixed and stored on wet ice until analyzed. Circulating lymphocyte counts were assessed by two methods from individual aliquots of the same samples. Total lymphocyte counts were determined in a standard hematology panel on a calibrated analyzer (Test #416; Horiba Medical ABX Pentra XL 80) and by in-house flow cytometry using fluorescent-activated cell sorting (FACS) analysis to determine the number of CD4+, CD8+ and B220+ lymphocytes (ThermoFisher Attune NxT flow cytometer). Data are expressed as follows for absolute lymphocyte counts (hematology analyzer), the individual lymphocyte subtypes (CD4+, CD8+ and B220+) and the sum of the individual lymphocyte subtypes (flow cytometry). • Number of lymphocytes per μL whole blood. • Percentage change relative to each group's pre-dose baseline at each time point
Whole blood samples (K2EDTA) were analyzed on the flow cytometer (ThermoFisher Attune NxT) using rat antibodies, as detailed below. The baseline and 3 hour post-dose samples were analyzed on the same day as collection. The 6 hour post-dose samples were analyzed after overnight storage at 4° C. (on wet ice in a 2-8° C. fridge) and on the same day as the 24 hour post-dose samples were collected and analyzed.
The oral dose level of 2 mg/kg of Compound 1 administered to the animals was intended to induce a significant reduction (˜≥60%) in the number of circulating lymphocyte. Following acclimation, blood samples were serially collected from the jugular vein of conscious Sprague Dawley rats prior to dosing and 3 hours, 6 and 24 hours after administration. The absolute number of circulating lymphocytes was quantified in whole blood samples using a hematology analyzer and the CD4^+, CD8^+ and B220^+ lymphocyte subtypes by flow cytometry. The plasma concentrations for each compound were quantified with liquid chromatography, tandem mass spectrometry.

[10] = Compound 1 single dose pharmacokinetics in the rat; assay type: in vivo; details: Sprague-Dawley, plasma; for AUC(0-t): read-out: AUC0-24; for half-life: read-out: t½ (converted)
Description: Plasma samples (50 μL) were aliquoted into a 96 deep-well polypropylene plate (2 mL/well) and 5 μL of dimethyl sulfoxide (DMSO) was added. Samples expected to be above the upper limit of quantitation (ULOQ) were diluted with plasma. Standard curves were prepared by mixing 5 μL of the test compound in DMSO at 10 times the concentration which was added to 50 μL of plasma in a 96 deep-well polypropylene plate. For example, for a 0.3 μM standard, the 10×DMSO concentration of the test compound was 3 μM. Standard curves were prepared using analytical standards of Compound 1. Protein was precipitated from study samples and standards by the addition of 150 μL of acetonitrile. The plate was vortexed to ensure complete precipitation of protein. The precipitated protein was pelleted by centrifugation at 4,000 rpm for 10 min at 20° C. and the clear supernatant was transferred to a clean 96-well plate and centrifuged again under the same conditions to pellet any transferred solid material.
Samples (7 μL) were introduced to a Shimadzu HPLC (LC-20ADXR) with a SIL-30ACMP autosampler (Shimadzu). The mobile phase was a gradient using 0.1% formic acid in water and 0.1% formic acid in acetonitrile. The column used was a Phenomenex Kinetic C18 100 A 2.6μ30×3 mm (PN 946975-906). The CTO-20AC column oven (Shimadzu) was set at 40° C. Prepared samples were usually analyzed in order of lowest to highest concentration for standards and reverse order of time-points for study samples. Study samples were bracketed by full standard curves. Typically at least 6 standards were used for quantitation with a percent accuracy of +/−15% for all standards except at the lower level of quantitation (LLOQ) where a percent accuracy of +/−20% was allowed.
An ABSciex Instruments Triple Quad 5500 Mass Spectrometer (Analyst 1.6.3) was used for detection in the MRM mode. Ionization was achieved by positive or negative electrospray with a source temperature of 600° C. Negative and positive mode analysis was performed in the same injection. Standard samples were usually analyzed in order of lowest to highest concentration. Typically at least six standards were used for quantification with a percent accuracy of +/−15% for all standards except at the LLOQ where a percent accuracy of +/−20% was allowable. Study samples were analyzed in reverse chronological order bracketed with bracketing standard curves.
Blood concentration versus time data are analyzed using non-compartmental methods (WinNonlin version 5.2; model 200 for oral dosing and model 202 for intravenous infusion). Absolute oral bioavailability (%) is calculated using the following expression: (Oral AUC×IV Dose)/(IV AUC×Oral Dose)×100.
Compound 1 was administered in a formulation of 10% volume/volume (v/v) DMSO and 5% v/v Tween 20 in water by IV administration (10 mL/kg) or 0.5% weight/volume (w/v) CMC in water by oral gavage (10 mL/kg). Animals received 0.2 mg/kg as the IV dose or 2 mg/kg/day orally as a single administration. Blood samples were collected at 1, 5, and 30 minutes, 2, 4, 8, 10, 24, […], 48, and 72 hours after IV dosing and 1, 2, 3, 4, 6, 8, 10, 12, 24, 48, and 72 hours following oral dosing. Blood was collected into tubes containing the anti-coagulant K2EDTA and processed to plasma. Plasma concentrations for each analyte were determined using a qualified LC-MS/MS method.

[11] = Table 4 comparative selectivity, agonist values, read-out: EC50 S1P3
[12] = Table 4 comparative selectivity, agonist values, read-out: EC50 S1P2
[13] = Table 4 comparative selectivity, agonist values, read-out: EC50 S1P4

T1 sequence (Q99500 whole entry): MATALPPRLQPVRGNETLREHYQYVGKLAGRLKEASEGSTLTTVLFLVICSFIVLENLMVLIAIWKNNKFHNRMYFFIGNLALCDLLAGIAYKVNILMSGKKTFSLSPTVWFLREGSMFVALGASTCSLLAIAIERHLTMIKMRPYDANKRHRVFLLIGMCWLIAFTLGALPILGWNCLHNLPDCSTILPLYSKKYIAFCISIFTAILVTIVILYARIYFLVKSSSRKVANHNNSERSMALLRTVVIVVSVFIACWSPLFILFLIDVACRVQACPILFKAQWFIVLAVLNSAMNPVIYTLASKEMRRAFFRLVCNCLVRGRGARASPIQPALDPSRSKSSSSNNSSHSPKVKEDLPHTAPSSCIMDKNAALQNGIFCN

EC50 (S1P3R [1]; [11]): > 5 µM
EC50 (S1P2R; [12]): > 10 µM
EC50 (S1P4R [2]; [13]): 2.04 µM
EC50 (S1P5R [3]; Table 4 comparative selectivity, agonist values, read-out: EC50 S1P5): 0.0051 µM
half-life ([4]; human, blood, po, 1 mg, read-out: Mean t1/2 (at steady state)): 15 to 23 h
Tmax ([4]; human, blood, po): 6 to 8 h
% of total agonist exposure at steady state [4]: Ozanimod: 3% to 6%
SMILES: CC(C)Oc1ccc(-c2nc(-c3cccc4c3CC[C@@H]4NCCO)no2)cc1C#N [Ozanimod, reference compound]

EC50 (S1P5R [5]; stable cells expressing recombinant human S1P5R): 0.0069 µM
selectivity for S1P5R over S1P2R, S1P3R and S1P4R (S1P5R [5]; β-lactamase readout): greater than 200 fold
EC50 (S1P3R [1]; [11]): > 5 µM
EC50 (S1P3R [1]; recombinant human S1P3R membranes, read-out: EC50 S1P3R GTPγS): > 5 µM
EC50 (S1P2R; [12]): > 10 µM
EC50 (S1P2R; recombinant human S1P2R membranes, read-out: EC50 S1P2R GTPγS): > 10 µM
selectivity for S1P1R over S1P2R, S1P3R and S1P4R (S1P1R [6]; [35S]GTPγS binding activity readout): greater than 1000 fold
EC50 (S1P1R [6]; recombinant human S1P1R membranes): 0.0021 µM
EC50 (S1P1R [7]): 40 pM
EC50 (S1P4R [2]; [13]): > 10 µM
EC50 (S1P4R [2]; recombinant human S1P4R membranes, read-out: EC50 S1P4R GTPγS): > 10 µM
EC50 (S1P3R [8]): > 10 µM
selectivity for S1P5R over S1P2R, S1P3R and S1P4R (S1P5R [3]; GTPγS readout): greater than 200 fold
EC50 (S1P5R [3]; recombinant human S1P5R membranes, read-out: EC50 S1P5R GTPγS): 0.0179 µM
EC50 (S1P4R [9]): > 10 µM
Peak-to-trough ratio (at steady state) ([4]; RMS subjects, ozanimod HCl 0.5 or 1 mg PO QD, steady state): 1.3- to 1.6-fold
Tmax ([4]; human, blood, po): 6 to 10 h
% of total agonist exposure at steady state [4]: 85% to 93%
Cmax ([10]; 0.2 mg/kg IV, single dose): 743 nM
Tmax ([10]; 0.2 mg/kg IV, single dose): 0.02 h
AUC(0-t) ([10]; 0.2 mg/kg IV, single dose): 0.386 µM·h
half-life ([10]; 0.2 mg/kg IV, single dose): 1.62 h
Cmax ([10]; 2.0 mg/kg oral, single dose): 14.8 nM
Tmax ([10]; 2.0 mg/kg oral, single dose): 3 h
Vd/F ([10]; 2.0 mg/kg oral, single dose): 292 L/kg
AUC(0-t) ([10]; 2.0 mg/kg oral, single dose): 0.0954 µM·h
half-life ([10]; 2.0 mg/kg oral, single dose): 3.73 h
bioavailability ([10]; 2.0 mg/kg oral vs 0.2 mg/kg IV): 2.5%
SMILES: CC(C)Oc1ccc(-c2nc(-c3cccc4c3CCC4=O)no2)cc1C#N [Compound 1, 2-isopropoxy-5-(3-(1-oxo-2,3-dihydro-1H-inden-4-yl)-1,2,4-oxadiazol-5-yl)benzonitrile]
time of maximum effect on lymphocyte counts (circulating lymphocytes): by six hours after administration
effect on lymphocyte counts at the 24 hour time-point (circulating lymphocytes; 24 hours): without significant effect
reduction of B220+ lymphocyte population relative to pre-dose (circulating lymphocytes; flow cytometry): 35%
reduction of CD4+ lymphocyte population relative to pre-dose (circulating lymphocytes; flow cytometry): 68%
reduction of CD8+ lymphocyte population relative to pre-dose (circulating lymphocytes; flow cytometry): 62%
reduction of total circulating lymphocyte counts (total number of CD4+, CD8+ and B220+) relative to pre-dose (circulating lymphocytes; flow cytometry): 52%
fewer lymphocytes relative to pre-dose values (circulating lymphocytes; hematology analyzer): 44%
